Results from paper PMC2742562 (ACS chemical biology, 2009).

Molecular target: glucose/galactose binding protein (GGBP) (Escherichia coli, UniProt P0AEE5)
Assay: […] galactose competition binding assay

glucose/galactose binding protein (GGBP), sequence (P0AEE5 24-332 limits assumed): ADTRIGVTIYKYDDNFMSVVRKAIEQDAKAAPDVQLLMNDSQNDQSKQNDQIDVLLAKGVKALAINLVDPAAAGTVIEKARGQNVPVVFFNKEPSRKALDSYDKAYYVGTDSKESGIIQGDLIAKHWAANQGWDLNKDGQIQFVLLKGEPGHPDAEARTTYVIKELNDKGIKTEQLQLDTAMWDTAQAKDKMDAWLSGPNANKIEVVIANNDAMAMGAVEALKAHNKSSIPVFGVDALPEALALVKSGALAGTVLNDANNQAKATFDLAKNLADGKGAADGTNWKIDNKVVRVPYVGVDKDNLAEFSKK

In the case of `OC[C@H]1O[C@@H](OCCO[C@H]2[C@H](O)[C@@H](CO)OC(O)[C@@H]2O)[C@H](O)[C@@H](O)[C@@H]1O` (stereo partly drawn) [DWI, 3-O-(2'-beta-D-glucopyanosyloxyethyl)-D-glucose], the Ki is reported as 27 ± 7 µM.
